Test results reported in patent publication US20140303260A1, “PHARMACEUTICAL COMPOSITIONS OF RESVERATROL” (NAD Life Pty Ltd, priority 2011, published 2014).

What was measured:
blood NAD levels = experiment: NAD levels in a test group of subjects after administration of resveratrol, buccal/sublingual composition versus oral; type: in vivo, human
Method: A 35% increased blood NAD level was sustained at 4 hrs compared to baseline. […] The comparison of the effect on NAD levels between oral administration of resveratrol and buccal/sublingual membrane administration of resveratrol is best shown in FIG. 3. This graph depicts the difference in the change in a subject's NAD levels (in ng/mL) when resveratrol is administered orally (absorption through the gastrointestinal tract) compared to when resveratrol is administrated by the pharmaceutical composition of the present invention (absorption through the buccal/sublingual membranes).

[1] = cited from earlier work

Oc1ccc(C=Cc2cc(O)cc(O)c2)cc1 [resveratrol]
increase in blood NAD levels (blood NAD levels; absorption through buccal/sublingual membranes (FIG. 1), at 1 hr (60 min)): 41%
increased blood NAD level sustained compared to baseline (blood NAD levels; absorption through buccal/sublingual membranes, at 4 hrs): 35%
change in blood NAD levels (blood NAD levels; delivered via powdered slurry (gastrointestinal absorption alone)): No observable change
level of NAD after oral administration (blood NAD levels; oral, absorbed through the gastrointestinal tract (FIG. 2), in only some of the people in the group): only a mild increase
solubility in aqueous solutions [1]: almost insoluble
